Two compounds from patent US6338963B1, “Use of carbon monoxide dependent guanylyl cyclase modifiers to stimulate neuritogenesis” (NeoTherapeutics, Inc., priority 1994, dated 2002) can be followed below.

In one experiment the test system is NT-3 mRNA. The experiment can be described thus: Northern blot of neurotrophin mRNA from astrocytes: NT-3. Also noted: key: The conditions which produced a detectable amount of each of the neurotrophin mRNAs are indicated by a “+”; a “++” indicating that at least twice the detectable amount was present; Those blots which were negative are indicated by a “−”. As to conditions: 24 hours. The class given is cell-based, NIH Swiss mice. As for the experimental part: Induction of neurotrophin mRNA was determined by northern blot analysis of astrocytes cultured with AIT-082, NGF, or both. The cells were harvested and RNA extracted at 24 hours after treatment.
More particularly, astrocytes from the cerebral cortex of NIH Swiss mice (Harlan) were isolated. Briefly, newborn pups (0-24 hours) were decapitated. Their brains were removed under aseptic conditions and were placed in modified Dulbecco's medium (DMEM) containing 20% heat-inactivated horse serum (Hyclone) (“complete medium”). The neopallium was then dissected from each cerebral hemisphere and minced into 1 mm cubes.
The astrocytes were then isolated by mechanical dissociation. The cubes were vortexed at maximum speed for one minute. The cell suspension was then passed first through 75 mm Nitex then through 10 mm Nitex. The resulting cell suspension was diluted in complete medium to a final concentration of one brain per 10 ml of complete medium. Ten milliliters of the diluted cell suspension was added to each 100 mm Falcon tissue culture plate (Fisher). After 3 days the medium was replaced with 10 ml fresh complete medium and subsequently was replaced twice weekly with DMEM containing 10% heat inactivated horse serum (“growth medium”). After two weeks in culture the astrocytes formed a confluent monolayer.
For RNA extraction, astrocytes were trypsinized. The astrocytes were then replated onto 100 mm PORN coated plates at a cell density of 10^6 cells per plate (10 ml growth medium). […]
The blots were probed with ^32P-labeled cDNA (NGF, NT-3 and BDNF probes) or oligonucleotide probe (FGF-2) by hybridization in Piperazine-N,N′-bis-(2-ethanesulfonic acid) (PIPES) buffer (50 mM PIPES, pH 6.8; 50 mM NaH2PO4; 0.1 M NaCl; 5% SDS and 1 mM EDTA) overnight at 50° C. […] Various concentrations ([…] of total RNA), as determined by spectrophotometry, of each sample were blotted and probed so that quantification could be done after insuring a linear film response. Quantification was performed using MCID Image Analysis (St. Catherine's, Ontario, Canada). […]

The next experiment concerns rat cultured astrocytes. The experiment can be described thus: Release of radioactively labeled adenine-based purines from rat cultured astrocytes. The class given is cell-based. The following applies: 300 μM, 1 hour. How it is done:
The experiments were carried out on cultured astrocytes of rat hippocampus at the fourth day in vitro (DIV), obtained from primary cultures replated in 35 mm Petri dishes ([…] cells/dish) and preloaded with [^3H]-adenosine (5×10^−8 M for a specific activity of 20.0 Ci/mM) for 30 minutes at 37° C.
The effect of AIT-082 on the proportional release of radioactively labeled adenine nucleosides and nucleotides from rat cultured astrocytes is shown in FIGS. 29A and 29B. Culture medium collected during the first hour of the release was analyzed by high performance liquid chromatography (HPLC) and the radioactivity associated with the different adenine compounds was measured and expressed as a percentage of the total radioactivity released. The results are shown for ATP, ADP, and AMP in FIG. 29A, and for adenosine, inosine, and hypoxanthine in FIG. 29B.

For `O=C(CCn1cnc2c(=O)[nH]cnc21)Nc1ccc(C(=O)O)cc1` [AIT-082, N-4-carboxyphenyl-3-(6-oxohydropurin-9-yl)propanamide], the “NT-3 mRNA” value is given as “++” with NT-3 mRNA (AIT-082 100 mM) and “+” in the experiment on NT-3 mRNA (AIT-082 + NGF (40 ng/ml)).

For `Nc1nc2c(ncn2[C@@H]2O[C@H](CO)[C@@H](O)[C@H]2O)c(=O)[nH]1` [guanosine], in the experiment with rat cultured astrocytes, the “ADP, proportional release” value is “(6.5 ± 0.7) percentage of the total [^3H]-purines released”; the “Adenosine, proportional release” value is “(11.9 ± 0.8) percentage of the total [^3H]-purines released”; the “Inosine, proportional release” value was “(36.0 ± 3.9) percentage of the total [^3H]-purines released”.
